The record followed here is patent publication US12234256B2, “Molecular degraders of extracellular proteins” (priority 2021, dated 2025).

The test system of assay [1] is α-DNP antibody. Nature of the assay: Ternary complex formation between hepatocytes and α-DNP antibody. In kind it is cell-based. The settings on record: FIG. 6B; competitive binders of ASGPR or α-DNP antibody.
For assay [2], the system named is α-DNP antibody. The experiment in a line: In vivo serum levels of α-DNP antibody, ELISA. The note with it: FIG. 8D; single variable dose; mice. The method, then:
In vivo experiments were performed under Yale University IACUC supervision following protocol entitled “pre-clinical evaluation of small molecule immunomodulators” (Protocol number 2017-11445). Experiments were performed in male nude mice purchased from Jackson Laboratory (NU/J, Stock No. 002019). Compounds were administered i.p. in a volume of 100 μL PBS. Approximately 25 μL of blood was collected at each time point by saphenous bleed. Antibody was administered as 40 μg in 100 μL i.p. Compounds were administered daily at the specified dose throughout the course of experiments. For data analysis, antibody levels were normalized to the recorded concentration of antibody observed in each mouse 24 hours after the i.p. administration.
ELISA analysis of serum samples was performed using MaxiSorp 96 well plates (Thermo, 44-2404-21). Plates were coated with 50 μL of BSA-DNP (Invitrogen, A23018) at 100 ug/mL in PBS and incubated at 4° C. overnight. Coating solution was then removed, and the plates were blocked with 2% BSA in PBS for 2 hours at room temperature, followed by washing twice with PBST (0.2% Tween). Serum samples were diluted in 2% BSA in PBS. […] The plates were then treated with TMB (Thermo 34028) followed by 2 M H2SO4 and analyzed for OD at 450 nm on a plate reader (BioTek Synergy 2). Sample concentrations were determined against a standard curve.

Consider `CC(=O)N[C@H]1[C@H](OCCOCCOCCNC(=O)CCOCC(COCCC(=O)NCCOCCOCCO[C@@H]2O[C@H](CO)[C@H](O)[C@H](O)[C@H]2NC(C)=O)(COCCC(=O)NCCOCCOCCO[C@@H]2O[C@H](CO)[C@H](O)[C@H](O)[C@H]2NC(C)=O)NC(=O)CNC(=O)COCCOCCOCCNc2ccc([N+](=O)[O-])cc2[N+](=O)[O-])O[C@H](CO)[C@H](O)[C@@H]1O` [D-MoDE-A], for which, in the assay with α-DNP antibody [1], the “D-MoDE-A-mediated ternary complex formation in presence of competitive binders” value was “inhibited by competitive binders of either ASGPR or α-DNP antibody”. For the same compound, the “serum levels of α-DNP antibody” value in the assay on α-DNP antibody [2] is on record as “decrease in serum levels of α-DNP antibody”.
